Test results as given in the CheMixHub viscosity set.
Values joined by “and” are separate entries in the source; they are usually repeats but may differ in a detail not shown here. Identical values can stand only once. ± gives the uncertainty stated by the source. Each block holds one compound with its values, some of them ahead of it.

viscosity (303 K, 101 kPa): 1.516 ± 0.029 mPa·s | viscosity (313 K, 101 kPa): 1.275 ± 0.021 mPa·s | viscosity (323 K, 101 kPa): 1.105 ± 0.015 mPa·s
SMILES: C=C(C)C(=O)OCCCCCCC

SMILES: CC(C)CCCC(C)CCCC(C)CCCC(C)C (stereo unspecified)
viscosity (298.15 K, 101.33 kPa): 5.479 ± 0.066 mPa·s

SMILES: CC(F)F
viscosity (293.35 K, 101 kPa): 0.172 ± 0.0047 mPa·s | viscosity (294.75 K, 101 kPa): 0.177 ± 0.0049 mPa·s | viscosity (313.35 K, 101 kPa): 0.1402 ± 0.0038 mPa·s | viscosity (314.25 K, 101 kPa): 0.1409 ± 0.0038 mPa·s

SMILES: CC(O)C(C)O (stereo unspecified)
viscosity (308.15 K, 101.3 kPa): 57.11 ± 0.39 mPa·s | viscosity (313.15 K, 101.3 kPa): 39.26 ± 0.38 mPa·s | viscosity (318.15 K, 101.3 kPa): 27.62 ± 0.27 mPa·s | viscosity (323.15 K, 101 kPa): 16.98 ± 1 mPa·s

SMILES: CCCCCCCCCCCCO
viscosity (303.15 K, 101.33 kPa): 12.95 ± 0.12 mPa·s

viscosity (303.15 K, 101 kPa): 1.32e+07 ± 4.3e+06 mPa·s
SMILES: CCCCCCCCCCCCOS(=O)(=O)[O-].CCCCn1cc[n+](C)c1

viscosity (303.15 K, 101.33 kPa): 1.165 ± 0.0096 mPa·s | viscosity (313.15 K, 101 kPa): 0.9864 ± 0.0085 mPa·s | viscosity (313.15 K, 101.33 kPa): 0.9864 ± 0.0085 mPa·s
SMILES: CCCCCCCCN
viscosity (303.15 K, 101 kPa): 1.169 ± 0.023 mPa·s and 1.169 ± 0.013 mPa·s and 1.165 ± 0.0096 mPa·s | viscosity (308.15 K, 101 kPa): 0.9267 ± 0.095 mPa·s and 0.9267 ± 0.012 mPa·s

SMILES: CCOC(=O)c1ccccc1C(=O)OCC
viscosity (313.15 K, 101.33 kPa): 6.3 ± 0.063 mPa·s

viscosity (293.15 K, 102 kPa): 0.852 ± 0.023 mPa·s | viscosity (303.15 K, 102 kPa): 0.751 ± 0.022 mPa·s | viscosity (313.15 K, 102 kPa): 0.668 ± 0.022 mPa·s | viscosity (323.15 K, 102 kPa): 0.598 ± 0.022 mPa·s
SMILES: CCc1cccc(CC)c1

viscosity (298.15 K, 100 kPa): 1 ± 0.022 mPa·s | viscosity (313.15 K, 100 kPa): 0.74 ± 0.016 mPa·s
SMILES: COC(=O)OCC(F)(F)F

SMILES: Fc1ccccc1
viscosity (303.15 K, 101 kPa): 0.514 ± 0.011 mPa·s and 0.523 ± 0.019 mPa·s and 0.523 ± 0.011 mPa·s | viscosity (308.15 K, 101 kPa): 0.495 ± 0.018 mPa·s and 0.495 ± 0.01 mPa·s | viscosity (313.15 K, 101 kPa): 0.46 ± 0.011 mPa·s and 0.467 ± 0.017 mPa·s and 0.467 ± 0.01 mPa·s

viscosity (293.15 K, 101 kPa): 268.9 ± 21 mPa·s | viscosity (298.15 K, 100 kPa): 79.13 ± 8.1 mPa·s and 79.13 ± 32 mPa·s | viscosity (298.15 K, 101 kPa): 198.1 ± 16 mPa·s | viscosity (303.15 K, 100 kPa): 63.01 ± 6.4 mPa·s and 63.01 ± 25 mPa·s | viscosity (303.15 K, 101 kPa): 149.5 ± 11 mPa·s | viscosity (308.15 K, 100 kPa): 51.79 ± 5.2 mPa·s and 51.79 ± 21 mPa·s | viscosity (308.15 K, 101 kPa): 115.4 ± 8.3 mPa·s | viscosity (313.15 K, 100 kPa): 43.03 ± 4.4 mPa·s and 43.03 ± 17 mPa·s | viscosity (313.15 K, 101 kPa): 91 ± 6.2 mPa·s | viscosity (318.15 K, 100 kPa): 36.34 ± 3.7 mPa·s and 36.34 ± 15 mPa·s | viscosity (318.15 K, 101 kPa): 72.85 ± 4.8 mPa·s | viscosity (323.15 K, 100 kPa): 30.76 ± 3.1 mPa·s and 30.76 ± 12 mPa·s | viscosity (323.15 K, 101 kPa): 58.64 ± 3.8 mPa·s
SMILES: NCCO.O=CO

SMILES: O=C(O)C(Cl)Cl
viscosity (308.15 K, 101 kPa): 4.779 ± 0.2 mPa·s | viscosity (323.15 K, 101 kPa): 3.243 ± 0.14 mPa·s

SMILES: [Br-].[Br-].[Br-].[Br-].[Sn+4]
viscosity (313.15 K, 101 kPa): 1.97 ± 0.07 mPa·s and 2.101 ± 0.055 mPa·s | viscosity (323.15 K, 101 kPa): 1.78 ± 0.07 mPa·s

SMILES: [Cl-].[Cl-].[Cl-].[Cl-].[Ge+4]
viscosity (293.15 K, 101 kPa): 0.599 ± 0.015 mPa·s | viscosity (298.15 K, 101 kPa): 0.589 ± 0.015 mPa·s | viscosity (303.15 K, 101 kPa): 0.561 ± 0.014 mPa·s | viscosity (313.15 K, 101 kPa): 0.516 ± 0.013 mPa·s

SMILES: c1ccc(Nc2ccccc2)cc1
viscosity (323.15 K, 101 kPa): 5.95 ± 0.35 mPa·s

viscosity (293.15 K, 101 kPa): 0.653 ± 0.065 mPa·s | viscosity (298.15 K, 100 kPa): 0.655 ± 0.094 mPa·s | viscosity (303.15 K, 101 kPa): 0.58 ± 0.058 mPa·s | viscosity (308.15 K, 100 kPa): 0.585 ± 0.091 mPa·s | viscosity (313.15 K, 101 kPa): 0.518 ± 0.052 mPa·s | viscosity (318.15 K, 100 kPa): 0.525 ± 0.088 mPa·s | viscosity (323.15 K, 101 kPa): 0.464 ± 0.047 mPa·s
SMILES: c1ccsc1
viscosity (298.15 K, 101 kPa): 0.62 ± 0.01 mPa·s and 0.615 ± 0.062 mPa·s | viscosity (308.15 K, 101 kPa): 0.54 ± 0.01 mPa·s and 0.545 ± 0.055 mPa·s | viscosity (318.15 K, 101 kPa): 0.48 ± 0.01 mPa·s and 0.491 ± 0.049 mPa·s
